Data on 4 compounds can be found in patent US20220386606A1, “SPECIFICALLY SUBSTITUTED 3-PHENYL-5-SPIROCYCLOPENTYL-3-PYRROLIN-2-ONES AND THEIR USE AS HERBICIDES” (Bayer Aktiengesellschaft, priority 2019, published 2022).

Assay [1] concerns SETVI. Put plainly: Post-emergence herbicidal action against SETVI. Type of assay: in vivo, Setaria viridis. To be noted: 80 g/ha, visual assessment about 3 weeks after treatment vs untreated controls. A digest of the protocol: (§1)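 Visual scoring about 3 weeks after treatment gave % herbicidal action relative to untreated plants (0% = control-like, 100% = plants dead). Compounds, as WP or EC with 0.2% wetting agent, were sprayed onto green parts at 600–800 l/ha. Plants had reached the one-leaf stage, 2–3 weeks after sowing in sandy loam under greenhouse conditions.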

The subject of assay [2] is LOLRI. Description: Post-emergence herbicidal action against LOLRI. Type of assay: in vivo, Lolium rigidum. To be noted: 80 g/ha, visual assessment about 3 weeks after treatment vs untreated controls. A digest of the protocol:
as §1

Assay [3] relates to AVEFA. Description: Post-emergence herbicidal action against AVEFA. Type of assay: in vivo, Avena fatua. As to conditions: 80 g/ha, visual assessment after about 3 weeks. A digest of the protocol: as §1
The subject of assay [4] is ALOMY. Description: Post-emergence herbicidal action against ALOMY. Type of assay: in vivo, Alopecurus myosuroides. To be noted: 80 g/ha, visual assessment after about 3 weeks. Summed up:
as §1

For assay [5], the system named is DIGSA. Put plainly: Post-emergence herbicidal action against DIGSA. It is filed as in vivo, Digitaria sanguinalis. As to conditions: 80 g/ha, visual assessment about 3 weeks after treatment vs untreated controls. A digest of the protocol:
as §1

In another assay the test system is HORMU. Put plainly: Post-emergence herbicidal action against HORMU. Type of assay: in vivo, Hordeum murinum. To be noted: 80 g/ha, visual assessment about 3 weeks after treatment vs untreated controls. The procedure:
Seeds of monocotyledonous and dicotyledonous weed and crop plants are laid out in sandy loam soil in wood-fiber pots, covered with soil and cultivated in a greenhouse under good growth conditions. 2 to 3 weeks after sowing, the test plants are treated at the one-leaf stage. The compounds of the invention, formulated in the form of wettable powders (WP) or as emulsion concentrates (EC), are then sprayed onto the green parts of the plants as aqueous suspension or emulsion at a water application rate equating to 600 to 800 l/ha with addition of 0.2% wetting agent. After the test plants have been left to stand in the greenhouse under optimal growth conditions for about 3 weeks, the action of the preparations is assessed visually in comparison to untreated controls (herbicidal action in percent (%): 100% activity=the plants have died, 0% activity=like control plants).

For assay [6], the system named is ECHCG. Put plainly: Post-emergence herbicidal action against ECHCG. Type of assay: in vivo, Echinochloa crus-galli. To be noted: 80 g/ha, visual assessment about 3 weeks after treatment vs untreated controls. A digest of the protocol: as §1
For assay [7], the system named is SETVI. Put plainly: Pre-emergence herbicidal action against SETVI. Type of assay: in vivo, Setaria viridis. As to conditions: 320 g/ha, scored visually after 3 weeks vs untreated controls. Summed up:
(§2)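 Herbicidal activity is expressed as percent visual damage compared with untreated controls, where 100% means dead plants, assessed 3 weeks after pre-emergence treatment of sown, soil-covered seeds in sandy loam under greenhouse conditions.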

The test system of assay [8] is ECHCG. Description: Pre-emergence herbicidal action against ECHCG. It is filed as in vivo, Echinochloa crus-galli. As to conditions: 320 g/ha, scored visually after 3 weeks vs untreated controls. Summed up: as §2
The test system of the next assay is AMARE. Put plainly: Pre-emergence herbicidal action against AMARE. It is filed as in vivo, Amaranthus retroflexus. As to conditions: 320 g/ha. Summed up:
as §2

Another assay has as its system POLCO. Put plainly: Pre-emergence herbicidal action against POLCO. As to conditions: 320 g/ha. It is filed as in vivo, Polygonum convolvulus. An excerpt:
Seeds of monocotyledonous and dicotyledonous weed plants and crop plants are laid out in sandy loam soil in wood-fiber pots and covered with soil. The compounds of the invention, formulated in the form of wettable powders (WP) or as emulsion concentrates (EC), are then applied to the surface of the covering soil as aqueous suspension or emulsion at a water application rate equating to 600 to 800 L/ha with addition of 0.2% wetting agent.
After the treatment, the pots are placed in a greenhouse and kept under good growth conditions for the trial plants. The damage to the test plants is scored visually after a test period of 3 weeks by comparison with untreated controls (herbicidal activity in percent (%): 100% activity=the plants have died, 0% activity=like control plants).

The test system of a further assay is VERPE. Put plainly: Pre-emergence herbicidal action against VERPE. Type of assay: in vivo, Veronica persica. To be noted: 320 g/ha. Summed up: as §2
Assay [9] relates to ALOMY. Put plainly: Pre-emergence herbicidal action against ALOMY. Type of assay: in vivo, Alopecurus myosuroides. To be noted: 320 g/ha, scored visually after 3 weeks vs untreated controls. A digest of the protocol: as §2
Another assay has as its system MATIN. Description: Pre-emergence herbicidal action against MATIN. Type of assay: in vivo. To be noted: 320 g/ha. Summed up: as §2
Assay [10] concerns LOLRI. Put plainly: Pre-emergence herbicidal action against LOLRI (Table 8, titled post-emergence at 320 g/ha). It is filed as in vivo, Lolium rigidum. As to conditions: table stands in the pre-emergence section. A digest of the protocol: as §2
The test system of assay [11] is DIGSA. Put plainly: Pre-emergence herbicidal action against DIGSA. It is filed as in vivo, Digitaria sanguinalis. As to conditions: 320 g/ha, scored visually after 3 weeks vs untreated controls. Summed up:
as §2

Assay [12] concerns AVEFA. Description: Pre-emergence herbicidal action against AVEFA. As to conditions: 320 g/ha, scored visually after 3 weeks vs untreated controls. It is filed as in vivo, Avena fatua. A digest of the protocol:
as §2

Another assay has as its system VIOTR. Put plainly: Pre-emergence herbicidal action against VIOTR. It is filed as in vivo, Viola tricolor. To be noted: 320 g/ha. A digest of the protocol: as §2

Regarding `C#Cc1cc(Cl)c(C2=C(O)C3(CCC(COC)C3)NC2=O)c(OC)c1` (stereo not shown) [Example I-01], in the assay on SETVI [1], the “Post-emergence action against SETVI in %” value is listed as 90%. The “Post-emergence action against LOLRI in %” value in the assay with LOLRI [2] is 100%. The “Post-emergence action against AVEFA in %” value with AVEFA [3] amounted to 90%. The “Post-emergence action against ALOMY in %” value in the assay on ALOMY [4] amounted to 100%. In the assay on DIGSA [5], the “Post-emergence action against DIGSA in %” value is 90%. Besides, in the assay with HORMU, the “Post-emergence action against HORMU in %” value came out at 100%. Also, in the assay with ECHCG [6], the “Post-emergence action against ECHCG in %” value came out at 90%.

Consider `CC#Cc1cc(Cl)c(C2=C(O)C3(CCC(COCC)C3)NC2=O)c(CC)c1` (stereo not shown) [Example I-03], for which the “Post-emergence action against SETVI in %” value in the assay with SETVI [1] came out at 100%. Besides, in the assay on LOLRI [2], the “Post-emergence action against LOLRI in %” value turned out to be 100%. For the same compound, in the assay with AVEFA [3], the “Post-emergence action against AVEFA in %” value amounted to 100%. Further, in the assay on ALOMY [4], the “Post-emergence action against ALOMY in %” value is recorded as 100%. Also, in the assay on DIGSA [5], the “Post-emergence action against DIGSA in %” value stood at 100%. The “Post-emergence action against HORMU in %” value with HORMU is 100%. Besides, the “Post-emergence action against ECHCG in %” value in the assay on ECHCG [6] is listed as 100%.

`C#Cc1cc(Cl)c(C2=C(O)C3(CCC(COCC)C3)NC2=O)c(OC)c1` (stereo not shown) [Example I-08]: the “Post-emergence action against SETVI in %” value in the assay on SETVI [1] came to 90%. For the same compound, the “Post-emergence action against LOLRI in %” value in the assay on LOLRI [2] stood at 90%. For the same compound, the “Post-emergence action against AVEFA in %” value in the assay with AVEFA [3] is listed as 90%. The “Post-emergence action against ALOMY in %” value with ALOMY [4] is listed as 80%. Also, in the assay with DIGSA [5], the “Post-emergence action against DIGSA in %” value is on record as 80%. Also, in the assay with HORMU, the “Post-emergence action against HORMU in %” value was 80%.

Regarding `CC#Cc1cc(C)c(C2=C(O)C3(CCC(COCCOC)C3)NC2=O)c(Cl)c1` (stereo not shown) [Example I-51], the “Post-emergence action against SETVI in %” value with SETVI [1] worked out at 100%. In addition, the “Post-emergence action against LOLRI in %” value in the assay with LOLRI [2] was 90%. In the assay on AVEFA [3], the “Post-emergence action against AVEFA in %” value turned out to be 100%. Also, in the assay with ALOMY [4], the “Post-emergence action against ALOMY in %” value is recorded as 100%. The “Pre-emergence action against SETVI in %” value in the assay with SETVI [7] is 100%. The “Pre-emergence action against ECHCG in %” value with ECHCG [8] is 100%. Besides, the “Pre-emergence action against AMARE in %” value in the assay with AMARE turned out to be 100%. In addition, the “Post-emergence action against DIGSA in %” value in the assay on DIGSA [5] amounted to 100%. Moreover, the “Pre-emergence action against POLCO in %” value in the assay on POLCO was found to be 80%. In addition, in the assay with VERPE, the “Pre-emergence action against VERPE in %” value is recorded as 100%. Moreover, the “Pre-emergence action against ALOMY in %” value in the assay on ALOMY [9] was 100%. For the same compound, in the assay with MATIN, the “Pre-emergence action against MATIN in %” value was found to be 100%. Besides, the “Pre-emergence herbicidal action against LOLRI in %” value in the assay on LOLRI [10] is reported as 100%. Moreover, the “Pre-emergence action against DIGSA in %” value with DIGSA [11] stood at 100%. The “Pre-emergence action against AVEFA in %” value in the assay with AVEFA [12] is listed as 100%. In the assay on ECHCG [6], the “Post-emergence action against ECHCG in %” value was 100%. Moreover, the “Pre-emergence action against VIOTR in %” value with VIOTR turned out to be 100%.
